Measured values reported in PMC10889512, “Pyrimidine Schiff Bases: Synthesis, Structural Characterization and Recent Studies on Biological Activities” (International Journal of Molecular Sciences, 2024).

Key:
[1] = system: AGS cell line; assay: Comet assay (single-cell gel electrophoresis), AGS; type: cell-based, human
Method: Single-cell gel electrophoresis was performed to assess the potential genotoxic effect on AGS and A172 after incubation with compound 4b at IC50. This method is based on the ability of damaged DNA to migrate out of the cell during electrophoresis. After DNA staining (Hoechst 33342), the characteristic “comet tail” could be observed under the fluorescence microscope. The damages in 100 randomly selected cells were visually classified into five groups according to the length of the “comet tail”. Group 0 consisted of cells without damaged DNA, while group 4 contained cells with maximally long tails. Based on this, a group damage index (DI) was calculated. The genotoxic effect was found in both examined cell lines. […]
The comet assay was performed according to the method of Singh et al. with slight modifications. […] A total of 100 randomly selected cells were scored, and captured comets were classified based on the comet’s tail length as follows: class 0 contained comets with no damaged DNA; class 1, those with low damage; class 2, those with medium damage; class 3, those with high damage; and class 4, those with very high damage. The damage index (DI) was calculated as follows: DI=0×n0+1×n1+2×n2+3×n3+4×n4, n0,1,2,3,4 —the amount of comets in each class.

[2] = system: A172; assay: Neutral red uptake assay on A172; type: cell-based, human; details: A172, 72 h treatment
Method: Based on the results obtained for the RPTEC cell line, the following concentrations of 4b–d were chosen to be applied to neoplastic cell lines: 0.1, 1, 10, 25, 50, and 100 µM. A172, AGS, CaCo-2, HeLa, and HepG2 cancer cell lines were used to perform a neutral red uptake assay. The obtained results were compared with a negative control (cell lines incubated without tested compounds), and half-maximal inhibitory concentration (IC50) values were calculated. Cell lines were plated in 96-well plates at a density of 1 × 10^4 cells/well. After 24 h incubation, which allowed the cells to attach and start to proliferate, the culture media were replaced with 4a–d dissolved in the appropriate medium at concentrations of 1, 10, 50, 100, 150 and 200 µM. […] Negative (1% DMSO in medium) and positive (1 µM staurosporine) controls were also included. Plates were incubated at 37 °C for 24, 48, and 72 h before the neutral red uptake assay. The neutral red uptake assay was performed as described by Repetto et al.. Briefly, the medium from all wells was discarded, the attached cells were washed with 100 µL PBS, and then 100 µL of neutral red working solution in medium (40 µg/mL) was added to each well. The neutral red solution was incubated overnight in the same conditions as the cells and centrifuged before being added to the cells. The plates were incubated for at least 2 h at 37 °C, 5% CO2, in a humidified atmosphere. Next, the neutral red medium was removed, and the cells were washed with 100 µL PBS. A 100 µL quantity of destain solution consisting of 50% ethanol, 1% glacial acetic acid, and deionized water was added to each well. Plates were incubated for 30 min with constant shaking on a horizontal shaker at 37 °C. Absorption was measured at 540 nm excitation. The cells’ viability was calculated by comparing results from experimental sets with negative controls according to the formula: % viability=ODtest substance−ODblind/ODnegative control−ODblind×100

Q: What does the source list for `Cc1nc(-c2ccccc2)nc(Nc2ccc(F)cc2)c1C=Nc1cccc(Cl)c1` [compound 4b, 5-{[(3-chlorophenyl)imino]methyl}-N-(4-fluorophenyl)-6-methyl-2-phenylpyrimidin-4-amine]?
A: DNA damage index ([1]; at IC50, 24 h): 63 arbitrary units; DNA damage index ([1]; at IC50, 48 h): 107 arbitrary units; IC50 [2]: 63.4 µM; IC50 ([2]; Homo sapiens, A 172, 72 h): 63.4 µM
